The text below walks through data of ChEMBL document CHEMBL3991601, “The target landscape of clinical kinase drugs” (Science, 2017).

As a reminder, the Kd is the equilibrium constant for the complex coming apart.

Molecules are shown by their SMILES. Calls of active or inactive are those of the source. Rule as the data show it, for most assays here: actives have a measured Kd and inactives only a lower limit. Where only a bound is given, the exact number is not on record here.

Assay [1] addresses T1, Peroxisomal acyl-coenzyme A oxidase 1 (Homo sapiens, UniProt Q15067).
T1 sequence (Q15067 whole entry): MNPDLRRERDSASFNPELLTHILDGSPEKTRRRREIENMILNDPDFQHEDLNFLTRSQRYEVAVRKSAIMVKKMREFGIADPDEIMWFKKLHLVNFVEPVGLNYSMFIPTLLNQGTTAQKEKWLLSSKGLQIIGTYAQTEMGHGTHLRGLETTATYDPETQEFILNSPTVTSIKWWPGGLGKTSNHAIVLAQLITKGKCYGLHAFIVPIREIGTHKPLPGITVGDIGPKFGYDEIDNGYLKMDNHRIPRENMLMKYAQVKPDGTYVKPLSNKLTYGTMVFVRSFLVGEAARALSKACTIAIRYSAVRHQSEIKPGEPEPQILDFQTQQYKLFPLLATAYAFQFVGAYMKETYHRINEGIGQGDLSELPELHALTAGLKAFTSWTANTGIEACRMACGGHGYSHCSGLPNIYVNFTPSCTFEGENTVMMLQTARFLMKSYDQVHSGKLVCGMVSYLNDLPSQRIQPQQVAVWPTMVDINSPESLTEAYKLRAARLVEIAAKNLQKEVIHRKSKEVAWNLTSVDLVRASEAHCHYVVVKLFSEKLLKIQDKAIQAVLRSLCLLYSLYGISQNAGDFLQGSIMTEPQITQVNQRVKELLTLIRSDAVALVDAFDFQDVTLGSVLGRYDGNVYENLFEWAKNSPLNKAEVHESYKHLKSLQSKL

Assay [2] addresses Mitogen-activated protein kinase kinase kinase 1 (Homo sapiens, UniProt Q13233).
A further assay concerns the target T2, Ephrin type-B receptor 3 (Homo sapiens, UniProt P54753).
T2 sequence (P54753 whole entry): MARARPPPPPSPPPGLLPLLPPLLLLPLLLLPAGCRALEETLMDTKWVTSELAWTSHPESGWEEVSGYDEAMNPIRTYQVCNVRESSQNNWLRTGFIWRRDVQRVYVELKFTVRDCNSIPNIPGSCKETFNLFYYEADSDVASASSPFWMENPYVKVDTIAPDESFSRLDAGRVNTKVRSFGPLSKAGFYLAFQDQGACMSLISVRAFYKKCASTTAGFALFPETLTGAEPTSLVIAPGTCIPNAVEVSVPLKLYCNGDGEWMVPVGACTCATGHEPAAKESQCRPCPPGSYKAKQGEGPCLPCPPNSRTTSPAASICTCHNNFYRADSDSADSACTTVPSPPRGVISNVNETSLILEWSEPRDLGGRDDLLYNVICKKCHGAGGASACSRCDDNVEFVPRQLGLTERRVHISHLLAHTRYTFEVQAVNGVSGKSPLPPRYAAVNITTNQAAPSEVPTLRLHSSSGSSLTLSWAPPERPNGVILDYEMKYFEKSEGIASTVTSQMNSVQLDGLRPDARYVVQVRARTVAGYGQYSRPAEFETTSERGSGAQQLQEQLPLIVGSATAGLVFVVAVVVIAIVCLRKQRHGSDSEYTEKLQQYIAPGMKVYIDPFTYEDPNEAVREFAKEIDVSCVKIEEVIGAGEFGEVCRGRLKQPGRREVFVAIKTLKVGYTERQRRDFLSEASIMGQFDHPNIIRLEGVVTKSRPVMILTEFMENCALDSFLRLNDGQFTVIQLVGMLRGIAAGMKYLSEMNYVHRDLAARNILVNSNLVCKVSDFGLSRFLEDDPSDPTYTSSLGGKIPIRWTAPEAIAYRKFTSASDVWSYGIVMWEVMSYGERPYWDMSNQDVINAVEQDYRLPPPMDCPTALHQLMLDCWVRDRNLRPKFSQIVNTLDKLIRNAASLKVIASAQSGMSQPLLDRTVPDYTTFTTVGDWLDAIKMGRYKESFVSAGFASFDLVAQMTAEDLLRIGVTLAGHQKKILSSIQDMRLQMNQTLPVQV

A further assay deals with T3, Scaffold protein ILK (Homo sapiens, UniProt Q13418).
T3 sequence (Q13418 whole entry): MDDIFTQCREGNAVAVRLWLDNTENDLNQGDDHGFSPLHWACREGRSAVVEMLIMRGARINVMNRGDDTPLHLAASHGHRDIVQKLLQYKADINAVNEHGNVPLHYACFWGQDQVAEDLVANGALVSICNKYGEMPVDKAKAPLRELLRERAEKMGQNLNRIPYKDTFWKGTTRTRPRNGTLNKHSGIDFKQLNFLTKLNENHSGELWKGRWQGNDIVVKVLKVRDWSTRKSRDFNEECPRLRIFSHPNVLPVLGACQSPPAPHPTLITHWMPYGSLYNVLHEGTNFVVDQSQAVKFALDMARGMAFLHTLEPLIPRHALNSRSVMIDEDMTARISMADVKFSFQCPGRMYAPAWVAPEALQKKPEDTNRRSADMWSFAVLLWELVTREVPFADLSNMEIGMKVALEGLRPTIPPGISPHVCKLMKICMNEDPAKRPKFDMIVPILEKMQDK

Assay [3] concerns the target Ribosomal protein S6 kinase alpha-5 (Homo sapiens, UniProt O75582).
For assay [4], the target named is Casein kinase I isoform delta (Homo sapiens, UniProt P48730).
For assay [5], the target named is Tyrosine-protein kinase HCK (Homo sapiens, UniProt P08631).
For assay [6], the target named is Tyrosine-protein kinase FRK (Homo sapiens, UniProt P42685).
The target in the next assay is T4, Activin receptor type-1B (Homo sapiens, UniProt P36896).
T4 sequence (P36896 whole entry): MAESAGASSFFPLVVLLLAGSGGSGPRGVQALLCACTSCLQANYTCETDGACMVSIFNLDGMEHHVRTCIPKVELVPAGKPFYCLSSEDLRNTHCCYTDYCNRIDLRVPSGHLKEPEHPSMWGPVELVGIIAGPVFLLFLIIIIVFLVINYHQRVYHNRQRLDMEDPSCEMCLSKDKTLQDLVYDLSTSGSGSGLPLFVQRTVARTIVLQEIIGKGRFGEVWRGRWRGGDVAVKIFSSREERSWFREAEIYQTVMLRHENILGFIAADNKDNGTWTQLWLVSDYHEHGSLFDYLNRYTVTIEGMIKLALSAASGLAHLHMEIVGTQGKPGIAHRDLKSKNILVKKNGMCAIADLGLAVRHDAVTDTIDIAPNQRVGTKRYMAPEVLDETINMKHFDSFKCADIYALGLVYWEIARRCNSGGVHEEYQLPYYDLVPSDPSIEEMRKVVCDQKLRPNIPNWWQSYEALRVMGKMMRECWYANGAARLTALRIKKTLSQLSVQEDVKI

The target in assay [7] is Proto-oncogene tyrosine-protein kinase Src (Homo sapiens, UniProt P12931).
Also: in the data inactive means no Kd found up to 30 µM.

Chain of Tyrosine-protein kinase HCK (P08631 whole entry): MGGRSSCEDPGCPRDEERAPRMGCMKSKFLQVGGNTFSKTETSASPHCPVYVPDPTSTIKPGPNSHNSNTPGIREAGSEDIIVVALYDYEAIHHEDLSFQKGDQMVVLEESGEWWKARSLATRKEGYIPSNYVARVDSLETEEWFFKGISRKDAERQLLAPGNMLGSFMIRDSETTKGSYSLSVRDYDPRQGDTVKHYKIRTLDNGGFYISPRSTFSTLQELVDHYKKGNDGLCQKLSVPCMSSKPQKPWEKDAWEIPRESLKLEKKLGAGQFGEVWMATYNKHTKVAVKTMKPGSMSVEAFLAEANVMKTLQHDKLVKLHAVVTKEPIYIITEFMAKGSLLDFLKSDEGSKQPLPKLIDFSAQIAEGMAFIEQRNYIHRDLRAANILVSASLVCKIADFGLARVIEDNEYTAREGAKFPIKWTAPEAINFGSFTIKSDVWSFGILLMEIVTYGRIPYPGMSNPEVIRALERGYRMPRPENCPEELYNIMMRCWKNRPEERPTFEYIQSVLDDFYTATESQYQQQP
Chain of Proto-oncogene tyrosine-protein kinase Src (P12931 2-536 limits assumed): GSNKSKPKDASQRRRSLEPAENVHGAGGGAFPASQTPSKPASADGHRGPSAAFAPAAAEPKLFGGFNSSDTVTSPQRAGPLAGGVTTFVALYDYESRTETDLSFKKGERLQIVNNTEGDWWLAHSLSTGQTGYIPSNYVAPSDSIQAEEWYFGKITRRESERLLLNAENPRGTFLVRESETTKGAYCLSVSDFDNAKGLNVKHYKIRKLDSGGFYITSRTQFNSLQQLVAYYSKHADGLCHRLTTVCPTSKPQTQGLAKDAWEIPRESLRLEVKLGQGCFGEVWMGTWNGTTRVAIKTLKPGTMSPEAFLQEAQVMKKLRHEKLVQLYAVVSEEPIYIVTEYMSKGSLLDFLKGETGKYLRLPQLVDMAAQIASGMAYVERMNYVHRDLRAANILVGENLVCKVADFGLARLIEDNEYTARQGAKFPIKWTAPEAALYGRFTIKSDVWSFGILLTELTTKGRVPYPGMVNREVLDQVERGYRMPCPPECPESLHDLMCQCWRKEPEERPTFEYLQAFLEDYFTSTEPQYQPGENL
Chain of Casein kinase I isoform delta (P48730 whole entry, canonical isoform): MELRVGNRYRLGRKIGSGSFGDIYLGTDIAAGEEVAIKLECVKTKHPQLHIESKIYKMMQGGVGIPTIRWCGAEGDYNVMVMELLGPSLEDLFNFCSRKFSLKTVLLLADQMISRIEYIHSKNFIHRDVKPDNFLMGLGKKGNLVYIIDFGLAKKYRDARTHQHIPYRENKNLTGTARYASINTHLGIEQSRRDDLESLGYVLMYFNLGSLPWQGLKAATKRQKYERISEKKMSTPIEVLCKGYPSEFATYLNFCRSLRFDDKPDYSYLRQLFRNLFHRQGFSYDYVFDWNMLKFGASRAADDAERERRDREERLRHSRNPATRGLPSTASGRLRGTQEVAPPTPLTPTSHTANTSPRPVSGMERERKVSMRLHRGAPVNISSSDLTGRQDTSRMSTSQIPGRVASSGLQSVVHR
Chain of Mitogen-activated protein kinase kinase kinase 1 (Q13233 whole entry): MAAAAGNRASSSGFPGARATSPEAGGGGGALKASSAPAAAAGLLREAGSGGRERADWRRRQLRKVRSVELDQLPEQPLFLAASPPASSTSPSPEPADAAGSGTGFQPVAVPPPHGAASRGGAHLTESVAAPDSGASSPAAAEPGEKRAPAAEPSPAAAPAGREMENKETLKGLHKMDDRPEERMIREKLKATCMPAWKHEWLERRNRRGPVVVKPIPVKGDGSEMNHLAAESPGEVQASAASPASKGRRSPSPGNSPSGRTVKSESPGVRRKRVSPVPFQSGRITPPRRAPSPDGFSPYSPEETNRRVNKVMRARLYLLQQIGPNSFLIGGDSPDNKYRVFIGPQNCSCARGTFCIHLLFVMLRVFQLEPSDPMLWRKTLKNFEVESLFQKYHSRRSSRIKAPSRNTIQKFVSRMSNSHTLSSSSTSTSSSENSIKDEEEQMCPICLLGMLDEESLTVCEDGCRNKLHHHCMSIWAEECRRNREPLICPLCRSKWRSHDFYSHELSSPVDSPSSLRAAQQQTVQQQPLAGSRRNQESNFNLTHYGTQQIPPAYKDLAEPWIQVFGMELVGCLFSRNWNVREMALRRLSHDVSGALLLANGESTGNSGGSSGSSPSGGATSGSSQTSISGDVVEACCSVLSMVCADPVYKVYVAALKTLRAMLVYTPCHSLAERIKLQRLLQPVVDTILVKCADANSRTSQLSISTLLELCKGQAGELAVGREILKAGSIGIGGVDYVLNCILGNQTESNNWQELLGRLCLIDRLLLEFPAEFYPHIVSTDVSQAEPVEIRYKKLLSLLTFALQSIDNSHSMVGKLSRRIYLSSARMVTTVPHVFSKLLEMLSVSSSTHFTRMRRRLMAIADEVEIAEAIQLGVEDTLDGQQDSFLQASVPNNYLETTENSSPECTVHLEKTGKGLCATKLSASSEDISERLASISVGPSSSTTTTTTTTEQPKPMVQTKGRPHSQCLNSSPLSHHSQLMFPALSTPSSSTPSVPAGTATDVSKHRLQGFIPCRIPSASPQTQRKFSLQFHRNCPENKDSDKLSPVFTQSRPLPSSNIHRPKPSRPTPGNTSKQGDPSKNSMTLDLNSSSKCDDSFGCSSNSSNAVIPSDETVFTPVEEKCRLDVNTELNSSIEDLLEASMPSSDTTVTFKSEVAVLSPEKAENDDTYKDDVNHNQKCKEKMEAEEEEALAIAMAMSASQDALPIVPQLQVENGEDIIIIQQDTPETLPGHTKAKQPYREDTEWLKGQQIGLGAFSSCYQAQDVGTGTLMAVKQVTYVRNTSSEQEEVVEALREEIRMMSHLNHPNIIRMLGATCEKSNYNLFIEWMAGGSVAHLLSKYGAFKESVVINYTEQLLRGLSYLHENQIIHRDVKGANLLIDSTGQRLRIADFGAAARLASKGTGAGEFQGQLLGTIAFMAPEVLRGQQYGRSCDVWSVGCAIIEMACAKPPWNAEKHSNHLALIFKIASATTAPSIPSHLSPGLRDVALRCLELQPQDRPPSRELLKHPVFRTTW
Chain of Tyrosine-protein kinase FRK (P42685 whole entry): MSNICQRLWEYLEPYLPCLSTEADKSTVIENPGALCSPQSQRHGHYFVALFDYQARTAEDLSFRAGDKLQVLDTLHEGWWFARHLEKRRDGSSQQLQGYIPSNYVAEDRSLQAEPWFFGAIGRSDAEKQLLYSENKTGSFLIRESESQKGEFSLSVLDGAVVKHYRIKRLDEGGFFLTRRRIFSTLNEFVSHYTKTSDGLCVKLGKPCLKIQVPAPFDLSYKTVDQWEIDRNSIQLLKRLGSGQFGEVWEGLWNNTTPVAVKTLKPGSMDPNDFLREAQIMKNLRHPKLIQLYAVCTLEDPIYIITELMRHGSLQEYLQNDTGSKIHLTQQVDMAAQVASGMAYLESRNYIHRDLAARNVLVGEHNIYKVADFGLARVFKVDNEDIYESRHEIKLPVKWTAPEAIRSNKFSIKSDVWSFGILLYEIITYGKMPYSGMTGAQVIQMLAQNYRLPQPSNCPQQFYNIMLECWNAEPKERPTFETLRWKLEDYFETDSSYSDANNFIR
Chain of Ribosomal protein S6 kinase alpha-5 (O75582 whole entry, canonical isoform): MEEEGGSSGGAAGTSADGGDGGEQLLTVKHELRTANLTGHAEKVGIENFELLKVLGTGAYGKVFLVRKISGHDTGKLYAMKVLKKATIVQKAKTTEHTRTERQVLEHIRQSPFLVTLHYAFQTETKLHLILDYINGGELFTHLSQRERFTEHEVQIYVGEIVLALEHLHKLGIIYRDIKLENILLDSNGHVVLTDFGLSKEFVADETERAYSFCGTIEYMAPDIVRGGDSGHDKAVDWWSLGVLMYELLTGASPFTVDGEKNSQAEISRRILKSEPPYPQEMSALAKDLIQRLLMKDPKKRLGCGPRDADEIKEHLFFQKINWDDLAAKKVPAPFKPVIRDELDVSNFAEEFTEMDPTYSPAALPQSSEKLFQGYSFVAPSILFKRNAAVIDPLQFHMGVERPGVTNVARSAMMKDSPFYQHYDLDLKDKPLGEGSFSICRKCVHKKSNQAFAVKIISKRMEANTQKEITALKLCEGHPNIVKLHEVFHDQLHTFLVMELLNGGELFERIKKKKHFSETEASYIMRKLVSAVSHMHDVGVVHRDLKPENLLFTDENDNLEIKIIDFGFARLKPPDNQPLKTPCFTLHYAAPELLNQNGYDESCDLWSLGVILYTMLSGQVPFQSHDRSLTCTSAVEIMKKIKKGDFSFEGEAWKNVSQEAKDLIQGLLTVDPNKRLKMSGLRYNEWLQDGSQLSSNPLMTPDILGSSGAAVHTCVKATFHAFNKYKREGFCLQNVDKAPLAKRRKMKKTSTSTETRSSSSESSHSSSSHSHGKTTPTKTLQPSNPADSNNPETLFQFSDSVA

For the compound `C[C@@H](Oc1cc(C(=O)Nc2ccc(C(=O)N3CCN(C)CC3)cc2)nnc1N)c1c(Cl)ccc(F)c1Cl`, the Kd in assay [1] is > 30 µM (inactive); in [2] it was 2.19 µM (active); on Ephrin type-B receptor 3, > 30 µM (inactive); on Scaffold protein ILK, > 30 µM (inactive); in assay [3] it was > 30 µM (inactive); in [4], > 30 µM (inactive). Besides, the Kd (in [5]; in assay [6]; on Activin receptor type-1B; in [7]) was > 30 µM (inactive) each time.

Turning to `C[C@H]1CNCCCN1S(=O)(=O)c1cccc2cncc(F)c12`, the Kd (in [1]; in [2]; at Ephrin type-B receptor 3; on Scaffold protein ILK; in [3]; in assay [4]) was > 30 µM (inactive) in each case. For the same compound, the Kd (in assay [5]; in assay [6]; at Activin receptor type-1B; in [7]) was > 30 µM (inactive) in each case.

As for `CCNC(=O)C#Cc1ccc2c(c1)NC(=O)/C2=C(\Nc1ccc(CN(C)C)cc1)c1ccccc1`, the Kd (in assay [1]; in [2]; on Ephrin type-B receptor 3; on Scaffold protein ILK; in [3]; in [4]) was > 30 µM (inactive) each time. Also, the Kd was 0.9 µM (active) in assay [5], 0.736 µM (active) in assay [6], > 30 µM (inactive) at Activin receptor type-1B and 0.491 µM (active) in [7].

As to `Cc1nc2cc(-c3nn(C(C)C)c4ncnc(N)c34)ccc2o1`, the Kd was > 30 µM (inactive) in [1]; 1.05 µM (active) in assay [2]; > 30 µM (inactive) on Ephrin type-B receptor 3; > 30 µM (inactive) at Scaffold protein ILK; > 30 µM (inactive) in assay [3]; 0.152 µM (active) in assay [4]. Further, the Kd in assay [5] is > 30 µM (inactive); in [6], > 30 µM (inactive); at Activin receptor type-1B, 0.767 µM (active); in [7], > 30 µM (inactive).

`COCc1c(-c2ccc(NC(=O)Nc3cc(C(F)(F)F)ccc3F)c(F)c2)c2c(N)ncnn2c1CN1CCOCC1`: the Kd (in assay [1]; in [2]; at Ephrin type-B receptor 3; at Scaffold protein ILK; in assay [3]; in [4]) was > 30 µM (inactive) in each case. The Kd in [5] was > 30 µM (inactive); in [6] it was 1.86 µM (active); at Activin receptor type-1B it was > 30 µM (inactive); in assay [7] it was > 30 µM (inactive).

Take `Cc1nc(NC(=O)N2CCC[C@H]2C(N)=O)sc1-c1ccnc(C(C)(C)C(F)(F)F)c1` [ALPELISIB]: the Kd (in [1]; in assay [2]; at Ephrin type-B receptor 3; in assay [3]; in assay [4]; in assay [5]) was > 30 µM (inactive) throughout. The Kd (in [6]; at Activin receptor type-1B; in assay [7]) was > 30 µM (inactive) in each case.

Regarding `Cc1csc(-c2nnc(Nc3ccc(Oc4ncccc4-c4ccnc(N)n4)cc3)c3ccccc23)c1` [AMG-900], the Kd in assay [1] is > 30 µM (inactive); in assay [2] it was > 30 µM (inactive); on Ephrin type-B receptor 3 it was > 30 µM (inactive); in assay [3] it was 2.15 µM (active); in assay [4] it was > 30 µM (inactive); in assay [5], > 30 µM (inactive). Also, the Kd (in [6]; at Activin receptor type-1B; in assay [7]) was > 30 µM (inactive) in each case.

Take `C=CC(=O)Nc1cc2c(Nc3ccc(F)c(Cl)c3)ncnc2cc1C#CC(C)(C)N1CCN(C)CC1` [AV-412 FREE BASE]: the Kd was > 30 µM (inactive) in assay [1]; 7.96 µM (active) in assay [2]; > 30 µM (inactive) on Ephrin type-B receptor 3; > 30 µM (inactive) at Scaffold protein ILK; > 30 µM (inactive) in [3]; > 30 µM (inactive) in assay [4]. The Kd (in [5]; in [6]; on Activin receptor type-1B; in [7]) was > 30 µM (inactive) each time.

With `COc1cc([C@@H]2c3cc4c(cc3[C@H](O)[C@H]3COC(=O)[C@@H]23)OCO4)cc(OC)c1OC` [AXL-1717], the Kd (in [1]; in [2]; at Ephrin type-B receptor 3; at Scaffold protein ILK; in assay [3]; in [4]) was > 30 µM (inactive) throughout. Besides, the Kd (in assay [5]; in [6]; on Activin receptor type-1B; in assay [7]) was > 30 µM (inactive) throughout.

With `Cn1cc(-c2cnn3c(N)c(Br)c([C@@H]4CCCNC4)nc23)cn1` [SCH-900776], the Kd in assay [1] was > 30 µM (inactive); in [2] it was 1.25 µM; at Ephrin type-B receptor 3, > 30 µM (inactive); in assay [3] it was > 30 µM (inactive); in [4], > 30 µM (inactive); in [5], > 30 µM (inactive). The Kd (in assay [6]; at Activin receptor type-1B; in assay [7]) was > 30 µM (inactive) in each case.

In the case of `CCS(=O)(=O)c1cccc(-c2cc(C(=O)NC3CCN(C)CC3)c(C)c3[nH]c4ncc(C)cc4c23)c1` [TAK-901], the Kd in [1] is > 30 µM (inactive); in [2], > 30 µM (inactive); at Scaffold protein ILK it was > 30 µM (inactive); in [3] it was > 30 µM (inactive); in assay [4], > 30 µM (inactive); in assay [5], 0.143 µM (active). Moreover, the Kd in [6] was 0.222 µM (active); on Activin receptor type-1B, > 30 µM (inactive); in assay [7], 0.092 µM (active).
